IC50 data for 30 compounds are collected here from patent US6245817A, “NPY5 receptor antagonists and methods for using same” (Bayer Corporation, priority 1999, dated 2001).

Like-named read-outs stand apart in the source and are kept apart here.

Broadly, the IC50 is the midpoint of a concentration-inhibition curve.

One assay deals with T1, Human NPY2 receptor (Homo sapiens, UniProt P49146).
T1 sequence (P49146 1-381): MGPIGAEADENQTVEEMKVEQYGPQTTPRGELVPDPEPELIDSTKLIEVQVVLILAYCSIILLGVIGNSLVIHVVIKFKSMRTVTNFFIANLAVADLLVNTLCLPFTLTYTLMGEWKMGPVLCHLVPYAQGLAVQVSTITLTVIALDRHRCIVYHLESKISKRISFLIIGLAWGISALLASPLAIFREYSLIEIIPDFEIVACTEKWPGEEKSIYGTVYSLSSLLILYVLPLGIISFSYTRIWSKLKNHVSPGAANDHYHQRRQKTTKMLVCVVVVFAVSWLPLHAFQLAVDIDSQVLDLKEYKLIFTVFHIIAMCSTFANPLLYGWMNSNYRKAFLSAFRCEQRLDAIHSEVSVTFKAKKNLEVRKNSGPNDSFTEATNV
As to the kind of experiment: Human NPY2 Receptor Binding Assay.

The next assay has as its target T2, Human NPY5 Receptor (Homo sapiens, UniProt Q15761).
T2 sequence (Q15761 1-445): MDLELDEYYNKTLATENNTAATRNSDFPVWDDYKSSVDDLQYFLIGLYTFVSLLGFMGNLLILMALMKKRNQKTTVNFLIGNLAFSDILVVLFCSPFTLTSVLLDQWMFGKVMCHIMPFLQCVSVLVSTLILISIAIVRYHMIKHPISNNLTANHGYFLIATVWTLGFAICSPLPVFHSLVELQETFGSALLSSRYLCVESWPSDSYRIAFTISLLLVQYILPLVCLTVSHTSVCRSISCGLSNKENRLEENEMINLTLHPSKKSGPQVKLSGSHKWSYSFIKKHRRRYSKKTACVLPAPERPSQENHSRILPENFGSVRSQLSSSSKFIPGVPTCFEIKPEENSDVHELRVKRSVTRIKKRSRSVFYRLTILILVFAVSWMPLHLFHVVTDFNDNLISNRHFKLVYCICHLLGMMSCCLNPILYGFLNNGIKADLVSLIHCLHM
Kind of assay: Human NPY5 Receptor Binding Assay.

The target of a further assay is T3, Rat NPY5 Receptor (Rattus norvegicus, UniProt Q63634).
T3 sequence (Q63634 1-445): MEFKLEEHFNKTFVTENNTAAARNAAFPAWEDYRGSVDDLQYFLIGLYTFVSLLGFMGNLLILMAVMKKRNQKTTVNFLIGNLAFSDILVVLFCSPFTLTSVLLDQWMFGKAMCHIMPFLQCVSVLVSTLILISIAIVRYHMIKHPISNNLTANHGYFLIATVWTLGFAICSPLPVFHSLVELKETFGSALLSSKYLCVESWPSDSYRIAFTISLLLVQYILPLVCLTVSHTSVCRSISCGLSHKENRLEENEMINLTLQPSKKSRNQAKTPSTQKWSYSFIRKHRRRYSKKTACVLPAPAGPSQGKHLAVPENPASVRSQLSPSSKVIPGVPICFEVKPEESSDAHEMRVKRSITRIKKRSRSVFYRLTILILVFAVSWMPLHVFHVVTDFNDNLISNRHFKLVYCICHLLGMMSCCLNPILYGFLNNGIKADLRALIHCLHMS
As to the kind of experiment: Rat NPY5 Receptor Binding Assay. The note with it: [125I]PYY; read-out: rNPY5 IC50.

The mark [1] stands for this setting: [125I]PYY, read-out: hPPY2 IC50.
The mark [2] stands for this setting: [125I]PYY, read-out: hNPY5 IC50.

With `Nc1nc(SCC(=O)Nc2ccc(C3CCCCC3)cc2)c2[nH]cnc2n1` [Compound 58, 2-(2-Amino-7H-purin-ylsulfanyl)-N-(4-cyclohexyl-phenyl)-acetamide], the IC50 at Human NPY2 receptor (setting [1]) was over 5000 nM; at Human NPY5 Receptor (setting [2]), over 1000 nM.
Regarding `O=C(CSc1ccncc1)Nc1ccc(C(=O)c2ccccc2)cc1` [Compound 41, N-(4-Benzoyl-phenyl)-2-(pyridin-4-ylsulfanyl)-acetamide], the IC50 is over 5000 nM on Human NPY2 receptor and 330 nM at Human NPY5 Receptor (hNPY5 IC50, [125I]PYY).
On to `Nc1n[nH]c(SCC(=O)Nc2ccc(C(=O)c3ccccc3)cc2)n1` [Compound 67, 2-(5-Amino-2H-[1,2,4]triazol-3-ylsulfanyl)-N-(4-benzoyl-phenyl)-acetamide], for which the IC50 at Human NPY2 receptor (setting [1]) is over 5000 nM; on Human NPY5 Receptor (setting [2]), 7600 nM.
`Nc1ccc(SCC(=O)Nc2ccc(C3CCCCC3)cc2)cc1` [Compound 99, 2-(4-Amino-phenylsulfanyl)-N-(4-cyclohexyl-phenyl)-acetamide]: the IC50 at Rat NPY5 Receptor turned out to be 510 nM; at Human NPY5 Receptor (setting [2]), 690 nM.
Taken in the same sequence, the figures for `O=C(CSc1nnc(-c2ccccc2)o1)Nc1ccc(C2CCCCC2)cc1` [Compound 94, N-(4-Cyclohexyl-phenyl)-2-(5-phenyl-[1,3,4]oxadiazo-2-ylsulfanyl)-acetamide] were 1200 nM and 670 nM.
`COC(=O)c1cnc(SCC(=O)Nc2ccc(C3CCCCC3)cc2)n1C` [Compound 115]: the IC50 at Rat NPY5 Receptor worked out at 360 nM; on Human NPY5 Receptor (setting [2]), 900 nM.
Taken in the same sequence, the figures for `O=C(CSc1nnc(-c2ccco2)[nH]1)Nc1ccc(C2CCCCC2)cc1` [Compound 111, N-(4-Cyclohexyl-phenyl)-2-(5-furan-2-yl-4H-[1,2,4]triazol-3-ylsulfanyl)-acetamide] were 570 nM and 1400 nM.
For the compound `O=C(CSc1nnc(CSCCOc2ccc(Cl)cc2Cl)o1)Nc1ccc(C(=O)c2ccccc2)cc1` [Compound 124], the IC50 on Rat NPY5 Receptor was 2300 nM; on Human NPY5 Receptor (setting [2]), over 1000 nM.
On the same counts, the results for `O=C(CSc1nccc(C(F)(F)F)n1)Nc1ccc(C(=O)c2ccccc2)cc1` [Compound 83, N-(4-Benzoyl-phenyl)-2-(4-trifluoromethylpyrimidin-2-ylsulfanyl)-acetamide] are 200 nM and 210 nM.
As to `O=C(CSCc1cccc(CS)c1)Nc1ccc(C(=O)c2ccccc2)cc1` [Compound 101, N-(4-Benzoyl-phenyl)-2-(3-mercaptomethyl-benzylsulfanyl)-acetamide], the values for the IC50 at Rat NPY5 Receptor and at Human NPY5 Receptor (setting [2]) were 1500 nM and 1400 nM, respectively.
`O=C(CSc1nnc(NC2CCCCC2)s1)Nc1ccc(C2CCCCC2)cc1` [Compound 116]: the IC50 at Rat NPY5 Receptor stood at 2000 nM; on Human NPY5 Receptor (setting [2]), 1300 nM.
In the case of `O=C(CSc1nnc(NC2CCCCC2)s1)Nc1ccc(C(=O)c2ccccc2)cc1` [Compound 123, N-(4-Benzoyl-phenyl)-2-(5-cyclohexylamino [1,3,4]thiadiazol-2-ylsulfanyl)-acetamide], the IC50 on Rat NPY5 Receptor amounted to 530 nM; on Human NPY5 Receptor (setting [2]), 420 nM.
On the same counts, the results for `O=C(CSCc1cccc(CS)c1)Nc1ccc(C2CCCCC2)cc1` [Compound 96, N-(4-Cyclohexyl-phenyl)-2-(3-mercaptomethyl-benzylsulfanyl)-acetamide] are 610 nM and 850 nM.
Taken in the same sequence, the figures for `CC(Sc1nnnn1C)C(=O)Nc1ccc(C2CCCCC2)cc1` (stereo not drawn) [Compound 127, N-(4-Cyclohexyl-phenyl)-2-(1-methyl-1H-tetrazol-5-ylsulfanyl)-propionamide] were 50 nM and 59 nM.
On the same counts, the results for `COc1ccc(-c2nnc(SCC(=O)Nc3ccc(C(=O)c4ccccc4)cc3)n2-c2cccc(C(F)(F)F)c2)cc1` [Compound 120, N-(4-Benzoyl-phenyl)-2-(5-(4-methoxy-phenyl)-4-(3-trifluoromethyl-phenyl)-4H-[1,2,4]triazol-3-ylsulfanyl]-acetamide] are 530 nM and 1300 nM.
For `Nc1ccccc1SCC(=O)Nc1ccc(C2CCCCC2)cc1` [Compound 97, 2-(2-Amino-phenylsulfanyl)-N-(4-cyclohexyl-phenyl)-acetamide], the IC50 came out at 90 nM at Rat NPY5 Receptor and 110 nM on Human NPY5 Receptor (setting [2]).
Regarding `Cn1nnnc1SCC(=O)Nc1ccc2c(c1)Cc1ccccc1-2` [Compound 130, N-(9H-Fluoren-2-yl)-2-(1-methyl-1H-tetrazol-5-ylsulfanyl)-acetamide], the results for the 50% inhibitory concentration (IC50) at Rat NPY5 Receptor and at Human NPY5 Receptor (setting [2]) were 150 nM and 160 nM, respectively.
On the same counts, the results for `O=C(CSCc1ccco1)Nc1ccc(C(=O)c2ccccc2)cc1` [Compound 110, N-(4-Benzoyl-phenyl)-2-(furan-2-ylmethylsulfanyl)-acetamide] are 340 nM and 290 nM.
Regarding `Cc1nnc(SCC(=O)Nc2ccc(C(=O)c3ccccc3)cc2)s1` [Compound 86, N-(4-Benzoyl-phenyl)-2-(5-methyl-[1,3,4]thiadiazol-2-ylsulfanyl)-acetamide], the results for the IC50 on Rat NPY5 Receptor and at Human NPY5 Receptor (setting [2]) were 150 nM and 170 nM, respectively.
On the same counts, the results for `Nc1cccc(SCC(=O)Nc2ccc(C(=O)c3ccccc3)cc2)c1` [Compound 102, 2-(3-Amino-phenylsulfanyl)-N-(4-benzoyl-phenyl)-acetamide] are 310 nM and 340 nM.
Taken in the same sequence, the figures for `COC(=O)c1cnc(SCC(=O)Nc2ccc(C(=O)c3ccccc3)cc2)n1C` [Compound 122, 2-[(4-Benzoyl-phenylcarbamoyl)-methylsulfanyl]-3-methyl-3H-imidazole-4-carboxylic acid methyl ester] were over 1000 nM and 1500 nM.
As to `CSc1sc(-c2nnc(SCC(=O)Nc3ccc(C(=O)c4ccccc4)cc3)n2C)c2c1C=CCC2` [Compound 119], the figures for the IC50 at Rat NPY5 Receptor and at Human NPY5 Receptor (setting [2]) were 1500 nM and 630 nM, respectively.
On the same counts, the results for `Nc1cccc(SCC(=O)Nc2ccc(C3CCCCC3)cc2)c1` [Compound 98, 2-(3-Amino-phenylsulfanyl)-N-(4-cyclohexyl-phenyl)-acetamide] are 290 nM and 320 nM.
Taken in the same sequence, the figures for `O=C(CSc1nnc(-c2ccccc2)o1)Nc1ccc(C(=O)c2ccccc2)cc1` [Compound 89, N-(4-Benzoyl-phenyl)-2-(5-phenyl [1,3,4]oxadiazol-2-ylsulfanyl)-acetamide] were 720 nM and 590 nM.
Taken in the same sequence, the figures for `O=C(CSc1nnnn1-c1ccc(O)cc1)Nc1ccc(C(=O)c2ccccc2)cc1` [Compound 87, N-(4-Benzoyl-phenyl)-2-[1-(4-hydroxy-phenyl)-1H-tetrazol-5-ylsulfanyl]-acetamide] were 120 nM and 100 nM.
Regarding `Cn1c(CO)cnc1SCC(=O)Nc1ccc(C2CCCCC2)cc1` [Compound 114, N-(4-Cyclohexyl-phenyl)-2-(5-hydroxymethyl-1-methyl-1H-imidazol-2-ylsulfanyl)-acetamide], the figures for the IC50 at Rat NPY5 Receptor and at Human NPY5 Receptor (setting [2]) were 390 nM and 900 nM, respectively.
Taken in the same sequence, the figures for `O=C(CSC1CCCC1)Nc1ccc(C(=O)c2ccccc2)cc1` [Compound 109, N-(4-Benzoyl-phenyl)-2-cyclopentylsulfanyl-acetamide] were 370 nM and 610 nM.
Taken in the same sequence, the figures for `Cc1nnc(SCC(=O)Nc2ccc(C3CCCCC3)cc2)s1` [Compound 91, N-(4-Cyclohexyl-phenyl)-2-(5-methyl [1,3,4]thiadiazol-2-ylsulfanyl)-acetamide] were 84 nM and 80 nM.
For `O=C(CSc1nnnn1-c1ccc(O)cc1)Nc1ccc(C2CCCCC2)cc1` [Compound 92, N-(4-Cyclohexyl-phenyl)-2-[1-(4-hydroxy-phenyl)-1H-tetrazo-ylsulfanyl]-acetamide], the results for the IC50 at Rat NPY5 Receptor and on Human NPY5 Receptor (setting [2]) were 72 nM and 81 nM, respectively.
Turning to `Cn1c(CO)cnc1SCC(=O)Nc1ccc(C(=O)c2ccccc2)cc1` [Compound 121, N-(4-Benzoyl-phenyl)-2-(5-hydroxymethyl-1-methyl-1H-imidazol-2-ylsulfanyl)acetamide], the IC50 on Rat NPY5 Receptor stood at 2800 nM; on Human NPY5 Receptor (setting [2]) it was 910 nM.
